Data set [1] concerns the target T1, NPR-11 (Caenorhabditis elegans, UniProt Q18179).
T1 construct: expressed in transfected cells; host or cells: HEK293, transient
T1 sequence (Q18179 1-402): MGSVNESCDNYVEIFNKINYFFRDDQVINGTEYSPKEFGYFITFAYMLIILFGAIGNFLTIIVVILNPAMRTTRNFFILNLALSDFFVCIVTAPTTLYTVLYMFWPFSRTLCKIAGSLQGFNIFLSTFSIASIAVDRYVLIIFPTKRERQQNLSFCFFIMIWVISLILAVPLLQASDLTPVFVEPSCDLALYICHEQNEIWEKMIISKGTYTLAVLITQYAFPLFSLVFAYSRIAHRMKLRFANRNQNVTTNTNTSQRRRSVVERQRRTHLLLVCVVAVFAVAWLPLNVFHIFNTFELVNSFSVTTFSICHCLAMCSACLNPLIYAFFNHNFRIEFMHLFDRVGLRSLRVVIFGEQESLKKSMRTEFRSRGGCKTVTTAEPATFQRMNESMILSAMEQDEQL
Briefly: cAMP reporter gene assay, Gs (no forskolin), NPR-11. It is filed as cell-based, C. elegans. The following applies: 4 h, NPR-11-transfected HEK293, CRE-luciferase reporter, mean of >=3 independent experiments. As for the experimental part: (§1) Activation of Gs and Gi/o was assessed with a cAMP reporter gene assay. HEK293 cells grown to 70–80% confluency in 6-well plates were transiently co-transfected with vectors encoding the receptor and the cAMP reporter gene plasmid pGL4.29 [luc2P/CRE/Hygro] (Promega; 4 μg total, 1:1 ratio) using Metafectene Pro (3 μl/μg DNA; Biontex) following the manufacturer’s instructions. 16 h post transfection, the cells were seeded into white 384-well plates at a density of 20,000 cells/well. On the next day, the medium was removed and the cells were stimulated with 20 μl of peptide solution (or forskolin as positive control) in serum-free DMEM for 4 h. For measuring Gi/o activity, the peptide solutions additionally contained 1 μM forskolin to elevate cellular cAMP levels. After incubation, the luciferase substrate OneGlo in lysis buffer (Promega) was added and the luminescence was measured in a microplate reader Tecan Spark (Tecan). Data were analyzed with GraphPad Prism 5.03 and are shown as fold of basal or fold of forskolin in case of Gαi/o activity.
(§2) For in vitro activation, data is presented as mean ± SEM of at least three independent experiments conducted in technical triplicate. […] For the C. elegans NPRs, we considered the strongest response elicited by any of the peptides downstream of a particular receptor as the receptor’s maximal signal. This may or may not be the biological maximum that can be reached by the ‘true’ endogenous agonist. For the human receptors, the response to the established endogenous agonist reflected the maximal signal.
For orientation: A reporter such as luciferase makes a cellular process visible.

The subject of data set [2] is NPR-3. Briefly: cAMP reporter gene assay, Gs (no forskolin), NPR-3. It is filed as cell-based, C. elegans. The following applies: 4 h, NPR-3-transfected HEK293, CRE-luciferase reporter, mean of >=3 independent experiments. The method, then:
as §1, §2

The target in data set [3] is T2, NPR-4b (Caenorhabditis elegans, UniProt A0A078BTK0).
T2 sequence (A0A078BTK0 1-376): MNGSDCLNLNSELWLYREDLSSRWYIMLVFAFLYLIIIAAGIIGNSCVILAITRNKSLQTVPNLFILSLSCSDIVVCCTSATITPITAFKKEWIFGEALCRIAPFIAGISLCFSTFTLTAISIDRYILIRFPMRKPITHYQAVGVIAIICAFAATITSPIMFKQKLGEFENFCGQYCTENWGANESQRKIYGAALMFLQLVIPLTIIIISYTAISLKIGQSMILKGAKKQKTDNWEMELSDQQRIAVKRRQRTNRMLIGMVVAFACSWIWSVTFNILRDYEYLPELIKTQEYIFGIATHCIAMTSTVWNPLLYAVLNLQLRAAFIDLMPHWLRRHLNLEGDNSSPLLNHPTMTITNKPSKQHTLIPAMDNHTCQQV
Briefly: cAMP reporter gene assay, Gs (no forskolin), NPR-4b. The following applies: 4 h, NPR-4b-transfected HEK293, CRE-luciferase reporter, mean of >=3 independent experiments. It is filed as cell-based, C. elegans. The method, then: as §1, §2

Data set [4] has as its target T3, NPR-1 (Caenorhabditis elegans, UniProt Q18534).
T3 sequence (Q18534 1-457): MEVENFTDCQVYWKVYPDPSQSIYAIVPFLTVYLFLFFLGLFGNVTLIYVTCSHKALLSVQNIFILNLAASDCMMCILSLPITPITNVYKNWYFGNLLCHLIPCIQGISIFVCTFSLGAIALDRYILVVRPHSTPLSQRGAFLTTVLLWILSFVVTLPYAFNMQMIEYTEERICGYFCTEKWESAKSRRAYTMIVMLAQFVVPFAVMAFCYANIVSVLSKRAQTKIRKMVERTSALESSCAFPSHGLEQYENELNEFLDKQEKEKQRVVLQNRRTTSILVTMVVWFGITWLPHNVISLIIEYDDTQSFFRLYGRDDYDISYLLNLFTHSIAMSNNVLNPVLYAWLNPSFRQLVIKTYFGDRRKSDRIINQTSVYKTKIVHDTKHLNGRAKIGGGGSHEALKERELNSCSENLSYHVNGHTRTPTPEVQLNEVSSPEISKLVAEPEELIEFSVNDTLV
Briefly: cAMP reporter gene assay, Gs (no forskolin), NPR-1. It is filed as cell-based, C. elegans. Further details: host or cells: HEK293. The following applies: 4 h, NPR-1-transfected HEK293, CRE-luciferase reporter, mean of >=3 independent experiments. The method, then: as §1, §2

Data set [5] deals with T4, NPR-5b (Caenorhabditis elegans, UniProt Q6F3C9).
T4 sequence (Q6F3C9 1-433): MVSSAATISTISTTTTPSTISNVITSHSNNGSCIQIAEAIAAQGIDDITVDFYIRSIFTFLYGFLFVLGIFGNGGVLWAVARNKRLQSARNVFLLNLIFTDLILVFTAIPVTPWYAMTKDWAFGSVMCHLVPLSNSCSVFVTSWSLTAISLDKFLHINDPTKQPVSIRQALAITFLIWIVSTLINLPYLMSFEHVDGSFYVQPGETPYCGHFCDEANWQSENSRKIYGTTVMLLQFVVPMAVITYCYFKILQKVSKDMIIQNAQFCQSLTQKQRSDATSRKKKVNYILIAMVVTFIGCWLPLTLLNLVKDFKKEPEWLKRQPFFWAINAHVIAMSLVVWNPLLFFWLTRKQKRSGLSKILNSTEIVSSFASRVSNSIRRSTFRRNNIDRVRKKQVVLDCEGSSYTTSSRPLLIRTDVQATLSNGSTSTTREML
Briefly: cAMP reporter gene assay, Gs (no forskolin), NPR-5b. The following applies: 4 h, NPR-5b-transfected HEK293, CRE-luciferase reporter, mean of >=3 independent experiments. The format is cell-based, C. elegans. The method, then: as §1, §2

Data set [6] concerns NPR-6. Briefly: cAMP reporter gene assay, Gs (no forskolin), NPR-6. The following applies: 4 h, NPR-6-transfected HEK293, CRE-luciferase reporter, mean of >=3 independent experiments. It is filed as cell-based, C. elegans. As for the experimental part: as §1, §2
Data set [7] can be described thus: Solubility of crude peptides in RP-HPLC purification solvents. The format is physicochemical. The following applies: H2O + 0.1% TFA / acetonitrile + 0.08% TFA (RP-HPLC purification conditions). As for the experimental part: C-terminally amidated peptides were synthesized in 15 μmol scale by solid-phase peptide synthesis following the Fmoc/tert-butyl strategy (reviewed in [18]) on Rink amide resin using an automated Syro II peptide synthesizer (MultiSynTech). Automated coupling reactions were performed as double couplings using 8 eq Nα-protected amino acid, activated in situ with equimolar amounts of Oxyma and […] in dimethylformamide (DMF) for 30 min. Automated Fmoc deprotection was carried out with 40% (v/v) piperidine in DMF for 3 min and 20% (v/v) piperidine in DMF for 10 min. Reactive side chains of amino acids were protected by tert-butyl (tBu for Tyr, Ser, Asp, Glu, Thr), trityl (Trt for Asn, Gln, His), 2,2,4,6,7-pentamethyldihydrobenzofuran-5-sulfonyl (Pbf for Arg) and tert-butyloxycarbonyl (Boc for Lys). Peptides were cleaved off the resin using trifluoroacetic acid (TFA)/H2O/triisopropylsilane (90/5/5, v/v/v) for 2.5 h at room temperature and precipitated in ice cold diethyl ether. All peptides were purified to > 95% purity by RP-HPLC (Shimadzu) using a Phenomenex Jupiter 10 μm Proteo 90 Å (C12) column. For most peptides, linear gradients of H2O + 0.1% trifluoroacetic acid (TFA) (eluent A) and acetonitrile (ACN) + 0.08% TFA (eluent B) were applied at a flow rate of 10 ml/minute. […] FLP-27, FLP-33, and FLP-34 were solubilized by ultrasonication at 50 °C for 10 min and subsequently purified under standard solvent conditions used pre-heated HPLC systems. […] Peptide identity was verified by matrix-assisted laser desorption/time of flight (MALDI-ToF; Ultraflex III MALDI-ToF/ToF, Bruker Daltonics) mass spectrometry, and peptide purity was evaluated with analytical RP-HPLC.

Data set [8] deals with T1, NPR-11. Briefly: cAMP reporter gene assay, Gi/o (inhibition of forskolin-induced cAMP), NPR-11. The format is cell-based, C. elegans. The following applies: for Emax: HEK293, read-out: Emax ± SEM [%]. As for the experimental part: as §1, §2
Data set [9] deals with T3, NPR-1. Description: cAMP reporter gene assay, Gi/o (inhibition of forskolin-induced cAMP), NPR-1. The format is cell-based, C. elegans. Further details: host or cells: HEK293. The following applies: for Emax: HEK293, read-out: Emax ± SEM [%]. As for the experimental part:
as §1, §2

Data set [10] concerns the target T4, NPR-5b. Briefly: cAMP reporter gene assay, Gi/o (with forskolin), NPR-5b. The format is cell-based, C. elegans. Further details: Emax: unit not given here. The following applies: NPR-5b, transiently transfected HEK293 cells. The method, then:
as §1, with “(Tecan).” for “(Tecan). Data were analyzed with GraphPad Prism 5.03 and are shown as fold of basal or fold of forskolin in case of Gαi/o activity.”
as §2

The target in data set [11] is T2, NPR-4b. Briefly: cAMP reporter gene assay, Gi/o (inhibition of forskolin-induced cAMP), NPR-4b. The format is cell-based, C. elegans. The method, then: as §1, with “(Tecan).” for “(Tecan). Data were analyzed with GraphPad Prism 5.03 and are shown as fold of basal or fold of forskolin in case of Gαi/o activity.”
as §2

Where [12] appears, read: 1 µM forskolin (positive control).
Setting [13] is: 100 µM forskolin (positive control).

Where two headings read alike, the source gives them in different places. Ends that are not written are not given here.

Take `C=C[C@@]1(C)CC(=O)[C@]2(O)[C@@]3(C)[C@@H](O)CCC(C)(C)[C@@H]3[C@H](O)[C@H](OC(C)=O)[C@@]2(C)O1` [forskolin, reference compound]: the “cAMP assay Gs, NPR-11” value in [1] (setting [12]) was 16.67 x-fold of basal; in data set [1] (setting [13]), 60.68 x-fold of basal. The results for the “cAMP assay Gs, NPR-3” value in data set [2] (setting [12]) and in data set [2] (setting [13]) were 20.07 x-fold of basal and 51.90 x-fold of basal, respectively. Moreover, the “cAMP assay Gs, NPR-4b” value in data set [3] (setting [12]) was 16.52 x-fold of basal; in [3] (setting [13]), 44.21 x-fold of basal. In addition, the results for the “cAMP assay Gs, NPR-1” value in data set [4] (setting [12]) and in [4] (setting [13]) were 15.39 x-fold of basal and 76.79 x-fold of basal, respectively. In addition, the results for the “cAMP assay Gs, NPR-5b” value in [5] (setting [12]) and in data set [5] (setting [13]) were 23.17 x-fold of basal and 67.99 x-fold of basal, respectively. The “cAMP assay Gs, NPR-6” value was 12.19 x-fold of basal in [6] (setting [12]) and 46.24 x-fold of basal in data set [6] (setting [13]).
Turning to ADISTFASAINNAGRLRY-NH2 [FLP-34-1], the “solubility of crude peptide” value in [7] is listed as “partly insoluble”. Besides, the Emax in [8] (SEM) was -0.62 ± 0.1%; in [9] (SEM), -0.65 ± 0.14%; in data set [10] (forskolin (1 µM) set to 1.00, increase of cAMP, mean ± SEM of at least three independent experiments, SEM), 6.7 ± 8.21. Further, the EC50 (usually the concentration that produces a half-maximal response) is 20 nM in [8] (SEM); 578 nM in data set [9]; 20100 nM in data set [10] (full concentration-response curve, with 1 µM forskolin, increase of cAMP, at least three independent experiments).
Take ALNRDSLVASLNNAERLRF-NH2 [FLP-34-2]: the “solubility of crude peptide” value in data set [7] is “partly insoluble”. This compound also displayed an EC50 in data set [8] (EC50 at NPR-11, full concentration-response curve, inhibition of 1 µM forskolin-induced cAMP, transfected HEK293 (Figure S1, Table S11)) of 0.7 nM. Also, in data set [8] (SEM), the Emax was -0.65 ± 0.14% and the EC50 was 0.631 nM.
Regarding KHEYLRF-NH2 [FLP-14], the results for the EC50 in [8], in [9] (SEM) and in data set [11] were 1890 nM, 25.1 nM and 2430 nM, respectively. The Emax in data set [8] (SEM) is -0.86 ± 0.19%; in data set [9] (SEM), -0.51 ± 0.13%; in [11] (NPR-4b, forskolin (1 µM) set to 1.00, lower values correspond to high Gi/o activity, transiently transfected HEK293 cells, mean ± SEM of at least three independent experiments, SEM), -0.77 ± 0.2%. Besides, the “Emax at NPR-1” value in data set [9] (full concentration-response curve, inhibition of 1 µM forskolin-induced cAMP, transfected HEK293 (Figure S1)) is on record as 53 % of FLP-21 induced response.
